Drawing on ChEMBL document CHEMBL1133271, “Synthesis and biological property of carba and 20-deoxo analogues of arenastatin A” (Bioorg Med Chem Lett, 2000), this text covers IC50 for four molecules.

A short description of the assay: Cytotoxicity of compound was determined against KB cells. It is filed as functional, cell-based. To be noted: Homo sapiens.

The structures appear in SMILES notation. Values after ≈ are worked out from the molar mass of the structure shown.

As usually defined, the IC50 is the midpoint of a concentration-inhibition curve. The low end stands for inhibition by little substance, the high end for a need for much substance. Turning to `COc1ccc(C[C@H]2NC(=O)/C=C/C[C@@H]([C@H](C)C3OC3c3ccccc3)OC(=O)[C@H](CC(C)C)OCCNC2=O)cc1` (some centres undefined), the half-maximal inhibitory concentration (IC50) is 40 ng/mL (≈ 69.1 nM).
With `COc1ccc(C[C@H]2NC(=O)/C=C/C[C@@H]([C@H](C)C3OC3c3ccccc3)OC(=O)[C@H](CC(C)C)CC(=O)CCNC2=O)cc1` (some centres undefined) the figure was 70 ng/mL (≈ 116 nM); with `COc1ccc(C[C@H]2NC(=O)/C=C/C[C@@H]([C@H](C)C3OC3c3ccccc3)OC(=O)[C@H](CC(C)C)NC(=O)CCNC2=O)cc1` (some centres undefined), 6 ng/mL (≈ 9.91 nM); with `COc1ccc(C[C@H]2NC(=O)/C=C/C[C@@H]([C@H](C)[C@H]3O[C@@H]3c3ccccc3)OC(=O)[C@H](CC(C)C)OC(=O)CCNC2=O)cc1` [ARENASTATIN A], 0.005 ng/mL (≈ 0.00824 nM).
